Here are results for three molecules from patent US9562044B2, “2-acylaminothiazole derivative or salt thereof” (ASTELLAS PHARMA INC., priority 2013, dated 2017).

This assay addresses T1, human c-Mpl receptor (Homo sapiens, UniProt P40238).
T1 construct: expressed in transfected cells
T1 sequence (P40238 26-635): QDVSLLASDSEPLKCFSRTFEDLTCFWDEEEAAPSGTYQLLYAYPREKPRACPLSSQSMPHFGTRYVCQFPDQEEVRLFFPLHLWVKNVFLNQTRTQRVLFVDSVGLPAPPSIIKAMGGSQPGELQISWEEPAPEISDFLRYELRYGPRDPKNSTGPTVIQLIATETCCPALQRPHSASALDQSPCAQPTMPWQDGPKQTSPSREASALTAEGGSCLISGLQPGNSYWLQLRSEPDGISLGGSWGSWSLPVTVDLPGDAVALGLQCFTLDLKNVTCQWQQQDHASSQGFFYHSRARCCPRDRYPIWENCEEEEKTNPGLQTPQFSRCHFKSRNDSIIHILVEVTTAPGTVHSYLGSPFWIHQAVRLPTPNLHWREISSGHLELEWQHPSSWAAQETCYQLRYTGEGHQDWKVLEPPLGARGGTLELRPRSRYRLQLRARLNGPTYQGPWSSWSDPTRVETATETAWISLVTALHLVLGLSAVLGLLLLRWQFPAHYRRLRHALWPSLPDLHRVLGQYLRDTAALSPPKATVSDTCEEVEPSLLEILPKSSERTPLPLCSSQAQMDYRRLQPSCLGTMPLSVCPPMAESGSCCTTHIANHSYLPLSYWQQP
Put plainly: Human c-Mpl-introduced Ba/F3 cell proliferative activity. The settings on record: concentration showing 30% proliferation; 100% = positive control at 1 μM. The format is cell-based. On the procedure:
Evaluation of Human c-Mpl-Introduced Ba/F3 Cell Proliferative Activity
The human c-Mpl-introduced Ba/F3 cell proliferative activity was measured by the following method.
As a positive control, 1-(5-{[4-(4-chloro-2-thienyl)-5-{[(2R)-2-methylpyrrolidin-1-yl]methyl}-1,3-thiazol-2-yl]carbamoyl}-3-fluoropyridin-2-yl)piperidine-4-carboxylic acid hydrochloride, which is disclosed as Example 315 in Patent Document 1 and represented by the formula A1, was used. It is known that the compound has a good human c-Mpl-introduced Ba/F3 cell proliferative activity as disclosed in Table 1 of Patent Document 1.
a) Construction of Human c-Mpl Receptor Expression Vector
A human c-mpl receptor gene (GenBank Accession No. M90102.1) was introduced into an expression vector pEF-BOS (Nucleic Acids Res. 18, 5322, 1990).
b) Construction of Cell Stably Expressing Human c-Mpl Receptor
A human c-Mpl receptor expression vector was introduced into a Ba/F3 cell (RIKEN BRC: RCB0805). For the introduction, an electroporation method was used. pEF-BOS-c-mpl (10 μg), pSV2bsr (1 μg, Kaken Pharmaceutical Co., Ltd.) and 1×10^7 Ba/F3 cells were put into a cuvette having a gap width of 0.4 cm, and electroporated under the conditions of 1.5 kV (25 μF) by a Gene Pulser (registered trademark) (BioRad). The cells were cultured in an RPMI-1640 culture medium containing 0.5% WEHI conditioned media (BD Biosciences) and 10% fetal bovine serum for 3 days, and then cultured in an RPMI-1640 culture medium, to which 10 μg/mL blasticidin had been further added, for 30 days to acquire a drug-resistant clone.
c) Measurement of Cell Proliferative Activity
The cells obtained in b) above was cultured in an RPMI-1640 culture medium containing 0.5% WEHI conditioned media, 10% fetal bovine serum, and used. On the day before the experiment, test substances (final concentration of 100 nM to 10 μM) which had been dissolved in a culture medium for assay (RPMI-1640 culture medium containing 10% fetal bovine serum) were added to a 384-well plate (Lot No. 781185, Greiner Bio-One). The cells in the culture medium that had been replaced with a culture medium for assay were dispensed into a 384-well plate, to which the test substances had been added in advance, to 1×10^4 cells/well, and cultured at 37° C. and 5% CO2 overnight. On the experiment day, a solution of a Cell Counting Kit (Dojindo Laboratories) was added to each well of the 384-well plate and cultured at 37° C. and 5% CO2 for about 5 hours. Thereafter, the absorbance (absorption wavelength of 450 nm) of each well was measured using Safire^2™ (TECAN) and used as the index of the number of cells. Further, as a negative control, a well in which the test substance had been not added was prepared.
The absorbance of the well without the test substance was set to 0%, and the absorbance in the case where the positive control was added at a final concentration of 1 μM was set to 100%. From the absorbance in the case where the test substance had been added, a cell proliferation rate (%) was calculated. From the obtained results, the test substance concentration showing 30% proliferation was calculated as an EC30 value by a logistic regression method.

Where a name gives a salt, the structure may show the parent alone. A value given as a limit tells only on which side of the number the result lay.

For the molecule `CC[C@@H]1CCCN1Cc1sc(NC(=O)c2cnc(N3CCC(C(=O)O)CC3)cn2)nc1-c1cc(F)cc(C(F)(F)F)c1` [Example 115], the “Test Example 2 EC30” value was greater than 10 µM.
For `CC[C@@H]1CCCN1Cc1sc(NC(=O)c2cnc(N3CCC(C(=O)O)CC3)cn2)nc1-c1ccc(OC)c(C(F)(F)F)c1` [Example 156] the value was greater than 10 µM; for `C[C@@H]1CCCN1Cc1sc(NC(=O)c2cnc(N3CCC(C(=O)O)CC3)cn2)nc1-c1cc(Cl)cs1` [Example 4, 1-(5-{[4-(4-chloro-2-thienyl)-5-{[(2R)-2-methylpyrrolidin-1-yl]methyl}-1,3-thiazol-2-yl]carbamoyl}pyrazin-2-yl)piperidine-4-carboxylic acid dihydrochloride], 0.35 µM.
